Assay results: ChEMBL document CHEMBL4483862, “Open-source discovery of chemical leads for next-generation chemoprotective antimalarials” (2018)

System: Plasmodium berghei
Test: Luciferase/luciferin-expressing antifolate-resistant parasites were used to infect a culture of HepG2 cells that were pre-incubated with compounds. Infected hepatocytes emit light due to the luciferase reaction. Assay results are presented as the percent inhibition of light emission compared to control. […]
Format: functional
Settings: sporozoite; for IC50: read-out: LUCIFERASE INFECTION ASSAY - IC50; for IC90: read-out: LUCIFERASE INFECTION ASSAY - IC90

CCOc1ccc(S(=O)(=O)Nc2cccc(C(=O)N3CCN(c4ccccn4)CC3)c2)cc1
IC50: > 10 µM
IC90: > 10 µM

CC(=O)NC(Cc1c[nH]c2ccccc12)C(=O)NNC(=O)c1ccccc1O (centres undefined)
IC50: > 10 µM
IC90: > 10 µM

CC(C)N(Cc1nc(=O)c2ccccc2[nH]1)C(=O)COc1ccccc1Cc1ccccc1
IC50: > 10 µM
IC90: > 10 µM

O=C(CN1CCN(C(=O)C2COc3ccccc3O2)CC1)Nc1ccccc1-c1ccccc1 (centres undefined)
IC50: > 10 µM
IC90: > 10 µM

Fc1ccc(-c2csc3ncnc(Sc4nnc(NC5CC5)s4)c23)cc1
IC50: > 10 µM
IC90: > 10 µM

O=C(c1ccc(S(=O)(=O)NCc2ccco2)cc1)N1CCc2sccc2C1c1cccs1 (centres undefined)
IC50: > 10 µM
IC90: > 10 µM

NS(=O)(=O)c1ccc(CCNC(=O)COC(=O)c2ccc3[nH]c4c(c3c2)CCCC4)cc1
IC50: > 10 µM
IC90: > 10 µM

Cc1cc(/C=C2\SC(N3CCOCC3)=NC2=O)c(C)n1-c1cccc(C(F)(F)F)c1
IC50: > 10 µM
IC90: > 10 µM

COc1cc2c(cc1OC)C(c1ccccc1)N(C(=O)/C=C/c1ccsc1)CC2 (centres undefined)
IC50: > 10 µM
IC90: > 10 µM

COCCN(Cc1nnc(-c2cccs2)o1)C(=O)c1cc(C2CC2)nc2c1cnn2C(C)C
IC50: > 10 µM
IC90: > 10 µM

CCOC(=O)c1c(CN2C(=O)NC3(CCCc4sccc43)C2=O)nc2ccccc2c1C (centres undefined)
IC50: > 10 µM
IC90: > 10 µM

COc1ccc(-c2nn(-c3ccccc3)cc2CN(Cc2ccccc2)C(=O)c2ccco2)cc1
IC50: > 10 µM
IC90: > 10 µM

Cc1ccc(-n2c(SCC(=O)c3ccc4c(c3)OCO4)nnc2N2CCCC2)cc1
IC50: > 10 µM
IC90: > 10 µM

O=C(c1nn(-c2ccccc2)c(=O)c2ccccc12)N1CCN(C2CCS(=O)(=O)C2)CC1 (centres undefined)
IC50: > 10 µM
IC90: > 10 µM

CC(C)(C)C(=O)/C=c1\[nH]c(=O)/c(=C\c2ccc(Oc3ccc(F)cc3)c([N+](=O)[O-])c2)s1
IC50: > 10 µM
IC90: > 10 µM

Cc1noc(C)c1COc1ccc(C(=O)NNc2c(Cl)cc(Cl)cc2Cl)cc1
IC50: > 10 µM
IC90: > 10 µM

CCn1c(=S)[nH]c2cc(C(=O)N3CCN(C(c4ccc(F)cc4)c4ccc(F)cc4)CC3)ccc21
IC50: > 10 µM
IC90: > 10 µM

c1ccc(-c2csc3ncnc(Sc4nnc(C5COc6ccccc6O5)n4-c4ccccc4)c23)cc1 (centres undefined)
IC50: > 10 µM
IC90: > 10 µM

Cc1nc(SCC(=O)N2c3ccccc3Sc3ccccc32)n(CC(C)C)c1C
IC50: > 10 µM
IC90: > 10 µM

CCN(CC)C(=O)COC(=O)c1ccc2c(c1)C(=O)N(CCC(C)C)C2=O
IC50: > 10 µM
IC90: > 10 µM

CC(=O)N1CCN(S(=O)(=O)c2cccc(C(=O)OCC(=O)c3ccc4c(c3)-c3ccccc3C4)c2)CC1
IC50: > 10 µM
IC90: > 10 µM

COc1ccc(NS(=O)(=O)c2ccc3oc(SC(C)C(=O)N4CCNC4=O)nc3c2)cc1 (centres undefined)
IC50: > 10 µM
IC90: > 10 µM

O=C(Cn1ncc(Cl)c(Cl)c1=O)Nc1ccc(OCc2ccccc2)cc1
IC50: > 10 µM
IC90: > 10 µM

CCOCCCn1c(SCC(=O)Nc2scc(C3CC3)c2C(=O)OCC)nnc1-c1ccc(Cl)cc1
IC50: > 10 µM
IC90: > 10 µM

Cc1nc(-c2ccc(CCNC(=O)CN3C(=O)NC(C)(c4ccc5ccccc5c4)C3=O)cc2)cs1 (centres undefined)
IC50: > 10 µM
IC90: > 10 µM

Cc1ccc(-c2nnc(SCC(=O)Nc3ccc(S(=O)(=O)N4CCCC4)cc3)[nH]2)cc1
IC50: > 10 µM
IC90: > 10 µM

O=C(OCC(=O)N1CCN(c2ccccc2)CC1)c1cccnc1Nc1cccc(C(F)(F)F)c1
IC50: > 10 µM
IC90: > 10 µM

Cc1nc2ccccc2c(=O)n1-c1ccc(C(=O)NCCc2ccc3c(c2)OCCO3)cc1
IC50: > 10 µM
IC90: > 10 µM

CN(C)c1ccc(S(=O)(=O)N2CCCCC2)cc1NC(=S)NCc1ccc2c(c1)OCO2
IC50: > 10 µM
IC90: > 10 µM

Cc1ccc(N(Cc2ccccc2)C(=O)C2CCN(S(=O)(=O)c3c(Cl)cccc3Cl)CC2)cc1
IC50: > 10 µM
IC90: > 10 µM

COCCn1c(SC(C)C(=O)c2ccc(Br)cc2)nnc1-c1cccc(C)c1 (centres undefined)
IC50: > 10 µM
IC90: > 10 µM

Cc1nn(Cc2ccccc2Cl)c(C)c1C(=O)OCC(=O)N1CCN(c2ccccc2)CC1
IC50: > 10 µM
IC90: > 10 µM

O=C(N/N=C/c1sc(Nc2ccccc2)nc1Cl)c1cc(-c2ccncc2)nc2ccccc12
IC50: > 10 µM
IC90: > 10 µM

Cc1cc(/C=C(\C#N)c2nc3ccccc3n2C)c(C)n1-c1ccc(Cl)c(C(F)(F)F)c1
IC50: > 10 µM
IC90: > 10 µM

COc1cc(C(=O)Nc2ccc(-c3cn4ccsc4n3)cc2)ccc1OCC(=O)N1CCOCC1
IC50: > 10 µM
IC90: > 10 µM

O=C(CN1CCN(Cc2nc3ccccc3s2)CC1)NN1C(=O)NC2(CCCCC2)C1=O
IC50: > 10 µM
IC90: > 10 µM

CCc1ccc(-c2csc(NC(=O)CCc3c(C)nc4nc(SC)nn4c3C)n2)cc1
IC50: > 10 µM
IC90: > 10 µM

Cc1cc(C)c2c(N)c(C(=O)NNC(=O)COc3ccc4c5c(c(=O)oc4c3)CCC5)sc2n1
IC50: > 10 µM
IC90: > 10 µM

CNc1snc(C)c1C(=O)OCc1ccc([N+](=O)[O-])cc1
IC50: > 10 µM
IC90: > 10 µM

O=C(Cn1cnc2cc(N3CCOCC3)c([N+](=O)[O-])cc2c1=O)c1ccc(C2CCCCC2)cc1
IC50: > 10 µM
IC90: > 10 µM

O=C(CSc1nnc(N2CCCC2)n1-c1ccccc1Cl)N1CCC(c2ccccc2)=N1
IC50: > 10 µM
IC90: > 10 µM

COc1ccc(OC)c2c1CN(c1cnn(-c3nc4ccccc4[nH]3)c(=O)c1Cl)CC2O (centres undefined)
IC50: > 10 µM
IC90: > 10 µM

CCn1c(C)nc2cc(C(=O)NNC(=O)/C=C/c3cccc(C(F)(F)F)c3)ccc21
IC50: > 10 µM
IC90: > 10 µM

COc1cc(C(=O)NC(c2ccccc2)c2ccc(C)cc2)ccc1OCC(=O)N1CCOCC1 (centres undefined)
IC50: > 10 µM
IC90: > 10 µM

COc1cc(OC)c2c(-c3ccccc3)cc(SCC(=O)N(C)C3CCS(=O)(=O)C3)nc2c1 (centres undefined)
IC50: > 10 µM
IC90: > 10 µM

COc1cc(OC)c(N2CC(C(=O)NC(C)c3ccc(F)c(F)c3)CC2=O)cc1Cl (centres undefined)
IC50: > 10 µM
IC90: > 10 µM

COc1ccccc1-n1cnnc1SCC(=O)NC(C)c1ccc(CC(C)C)cc1 (centres undefined)
IC50: > 10 µM
IC90: > 10 µM

CC(C(=O)Nc1cccc(C#N)c1)N1CCN(c2ncccn2)CC1 (centres undefined)
IC50: > 10 µM
IC90: > 10 µM

Cc1csc2nc(COC(=O)c3ccc(-c4nc5ccccc5s4)o3)cc(=O)n12
IC50: > 10 µM
IC90: > 10 µM

O=C(CSc1ccc(S(=O)(=O)N2CCOCC2)cn1)NC(c1ccccc1)c1cccs1 (centres undefined)
IC50: > 10 µM
IC90: > 10 µM

CCOc1ccccc1NC(=O)C(c1ccccc1)N1CCC(n2c(=O)[nH]c3ccccc32)CC1 (centres undefined)
IC50: 5.29 µM
IC90: > 10 µM

NC(=O)c1ccsc1NC(=O)COC(=O)c1ccc2c(c1Cl)C(=O)c1ccccc1C2=O
IC50: > 10 µM
IC90: > 10 µM

O=C(C1CN(C(=O)CCCc2c[nH]c3ccccc23)c2ccccc2O1)N1CCCCC1 (centres undefined)
IC50: > 10 µM
IC90: > 10 µM

CSCCC(NCc1cc(C)n(-c2ccnn2C(C)C)c1C)c1nc2ccccc2[nH]1 (centres undefined)
IC50: > 10 µM
IC90: > 10 µM

Cn1nc(CC(=O)N2CC(C(=O)N3CCCCC3)Oc3ccccc32)c2ccccc2c1=O (centres undefined)
IC50: > 10 µM
IC90: > 10 µM

Cc1cc(C(C)(C)C)cc(C)c1COC(=O)/C(=C/c1ccccc1)n1nnnc1C
IC50: > 10 µM
IC90: > 10 µM

Cc1ccc(Cn2nc(C)c3cc(C(=O)N4CCN(c5ncccn5)CC4)sc32)cc1
IC50: > 10 µM
IC90: > 10 µM

COCCCn1c(Sc2ncnc3sc4c(c23)CCC4)nc2sc3c(c2c1=O)CCC3
IC50: > 10 µM
IC90: > 10 µM

O=C(COC(=O)c1cc(-c2ccc(OC(F)F)cc2)nc2ccccc12)Nc1nnc(-c2ccccc2)o1
IC50: > 10 µM
IC90: > 10 µM

CCn1c(SCc2csc(N(C(C)=O)c3c(C)cc(C)cc3Cl)n2)nnc1C1CC1
IC50: > 10 µM
IC90: > 10 µM

COc1ccc2cc(C(C)C(=O)N3CCN(S(=O)(=O)/C=C/c4ccccc4)CC3)ccc2c1 (centres undefined)
IC50: > 10 µM
IC90: > 10 µM

Cc1cc(C(=O)CSc2nnc3n2CCCCC3)c(C)n1Cc1ccc2c(c1)OCO2
IC50: > 10 µM
IC90: > 10 µM

Cc1ccc2c(COC(=O)[C@@H]3CCCN3C(=O)c3cccs3)cc(=O)oc2c1
IC50: > 10 µM
IC90: > 10 µM

CN(Cc1nc2ccccc2s1)C(=O)CSc1nnc(N2CCCCC2)n1-c1ccccc1
IC50: > 10 µM
IC90: > 10 µM

CCN(CC)S(=O)(=O)c1ccc(C)c(NC(=O)CN(Cc2c(F)cccc2Cl)C2CC2)c1
IC50: > 10 µM
IC90: > 10 µM

O=C(NC(c1ccc(F)cc1)c1cccs1)c1cc2ccccc2o1 (centres undefined)
IC50: > 10 µM
IC90: > 10 µM

CCOC(=O)/C=C1\SCC(=O)N1CCOC(=O)c1ccccc1
IC50: > 10 µM
IC90: > 10 µM

CC(=O)N/C(=C\c1ccccc1)C(=O)OCc1ncc(-c2ccccc2)o1
IC50: > 10 µM
IC90: > 10 µM

O=C(CN1CCN(C(=O)c2ccccc2COc2ccccc2)CC1)Nc1ccccc1Cl
IC50: > 10 µM
IC90: > 10 µM

COc1cc(/C=c2\s/c(=C(/C#N)C(=O)Nc3cccc(S(=O)(=O)N4CCCCC4)c3)n(CCc3ccccc3)c2=O)ccc1OC(F)F
IC50: > 10 µM
IC90: > 10 µM

CC1C(=O)Nc2ccc(-c3csc(-c4ccc(NC(=O)c5ccco5)cc4)n3)cc21 (centres undefined)
IC50: > 10 µM
IC90: > 10 µM

CCCN(CC(=O)N1N=C(c2ccc(C)cc2)CC1c1ccco1)Cc1nnc(-c2ccco2)o1 (centres undefined)
IC50: > 10 µM
IC90: > 10 µM

Nc1c(C(=O)CN2CCN(C(c3ccc(F)cc3)c3ccc(F)cc3)CC2)c(=O)[nH]c(=O)n1Cc1ccccc1
IC50: > 10 µM
IC90: > 10 µM

COc1ccc(-c2csc3ncnc(NC(C)c4ccc(Cl)cc4Cl)c23)cc1 (centres undefined)
IC50: > 10 µM
IC90: > 10 µM

CCCCN(C(=O)CSc1nnc(-c2ccc(OC)cc2)n1C(C)C)c1c(N)n(CCCC)c(=O)[nH]c1=O
IC50: > 10 µM
IC90: > 10 µM

COc1ccc2cc(C(=O)NNC(=O)c3ccccn3)c(C)nc2c1
IC50: 8.4 µM
IC90: > 10 µM

Cc1c(/C=N/NC(=O)c2ccccc2)c(Cl)n(C)c(=O)c1C#N
IC50: > 10 µM
IC90: > 10 µM
